Assay results: patent US6340686B1, “Thienopyrimidine compounds, their production and use” (Takeda Chemical Industries, Ltd., priority 1999, dated 2002)

Columns and labels:
[1] = tested on: plasma LH; experiment: Suppression of plasma LH in castrated monkeys; format: in vivo, cynomolgus monkeys (Macaca fascicularis); settings: castrated male cynomolgus monkeys
Experimental: The Example compound No. 2 was orally administered to castrated male cynomolgus monkeys (Macaca fascicularis), and plasma LH was quantified. The male cynomolgus monkeys, used at 4 years 9 months to 6 years 3 months of age at time of experimentation, had been castrated more than 3 months prior to the examination. Test animals [n=3] were given 30 mg/kg (3 ml/kg) of the compound suspended in 0.5% methyl cellulose at a final concentration of 1% by oral administration, and control animals [n=2] were given 3 ml/kg of the 0.5% methyl cellulose dispersant alone by oral administration. At 24 hours and immediately before administration and at 2, 4, 6, 8, 24, and 48 hours after administration, blood was collected for heparinized plasma samples via the femoral vein and immediately stored under freezing conditions.
Plasma LH concentrations were determined by a bioassay using mouse testicular cells. The testicular cells were collected from male BALB/c mice (8 to 9 weeks of age) and washed three times with 1 ml of Dulbecco's modified Eagle medium. (DMEM-H) containing 20 mM HEPES and 0.2% BSA per testis. After incubation at 37° C. for 1 hour, the cells were passed through a nylon mesh filter (70 μm) and dispensed to test tubes at 8×10^5 cells/tube. After the cells were washed twice with 0.4 ml of DMEM-H, 0.4 ml of a DMEM-H solution containing either equine LH (Sigma Company), as the standard LH, or monkey plasma, previously diluted up to 300 fold, as the test sample, was added, followed by a reaction at 37° C. for 2 hours. The testosterone concentration in the culture supernatant was determined by a radioimmunoassay (CIS Diagnostics Company), and the LH concentration in the test monkey plasma was calculated from the standard curve for the standard equine LH.
The results are given together in FIG. 1. […]

[2] = target: T1, GnRH receptors (rat pituitary anterior lobe membrane fraction) (Rattus norvegicus, UniProt P30969); experiment: 125I-leuprorelin binding inhibition, rat pituitary anterior lobe membrane fraction
T1 construct: Anterior lobes of the pituitary glands were isolated from forty Wistar rats; from tissue; host or cells: anterior lobes of pituitary glands of male Wistar rats
T1 sequence (P30969 1-327): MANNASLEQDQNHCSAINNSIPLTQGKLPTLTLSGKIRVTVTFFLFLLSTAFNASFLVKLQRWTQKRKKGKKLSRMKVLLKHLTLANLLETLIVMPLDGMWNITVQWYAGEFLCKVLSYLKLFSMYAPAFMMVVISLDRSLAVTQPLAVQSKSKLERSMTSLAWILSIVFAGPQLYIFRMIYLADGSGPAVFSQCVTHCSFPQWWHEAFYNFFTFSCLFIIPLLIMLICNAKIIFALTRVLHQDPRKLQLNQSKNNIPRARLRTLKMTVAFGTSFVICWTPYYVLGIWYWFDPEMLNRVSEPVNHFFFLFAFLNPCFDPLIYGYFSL
Experimental: (1) Preparation of ^125I-leuprorelin To a tube containing 10 μl of a 3×10^−4M aqueous solution of leuprorelin and 10 μl of 0.01 mg/ml lactoperoxidase, 10 μl (37MBq) of a solution of Na^125I was added. After stirring, 10 μl of 0.001% H2O2 was added, and a reaction was carried out at room temperature for 20 minutes. By adding 700 μl of a 0.05% TFA (trifluoroacetic acid) solution, the reaction was stopped, followed by purification by reversed-phase HPLC. The HPLC conditions used are shown below. ^125I-leuprorelin was eluted at a retention time of 26 to 27 minutes. […] To determine maximum binding quantity, a reaction mixture of 2 μl of 60% DMSO and 10 μl of 38 nM ^125I-leuprorelin was prepared. […] After this filtration, the radioactivity of ^125I-leuprorelin remaining on the filter paper was measured with a γ-counter. The expression (TB-SB)/(TB-NSB)×100 (where SB=radioactivity with the compound added, TB=maximum bound radioactivity, NSB=nonspecifically bound radioactivity) was calculated to find the binding inhibition rate (%) of each test compound. […]

[3] = target: T2, human GnRH receptor (Homo sapiens, UniProt P30968); experiment: 125I-leuprorelin binding inhibition, CHO cell membrane fraction containing human GnRH receptor; settings: 25° C. for 60 minutes, Hill plot
T2 construct: expressed in transfected cells; host or cells: CHO (Chinese hamster ovary) cells
T2 sequence (P30968 1-328): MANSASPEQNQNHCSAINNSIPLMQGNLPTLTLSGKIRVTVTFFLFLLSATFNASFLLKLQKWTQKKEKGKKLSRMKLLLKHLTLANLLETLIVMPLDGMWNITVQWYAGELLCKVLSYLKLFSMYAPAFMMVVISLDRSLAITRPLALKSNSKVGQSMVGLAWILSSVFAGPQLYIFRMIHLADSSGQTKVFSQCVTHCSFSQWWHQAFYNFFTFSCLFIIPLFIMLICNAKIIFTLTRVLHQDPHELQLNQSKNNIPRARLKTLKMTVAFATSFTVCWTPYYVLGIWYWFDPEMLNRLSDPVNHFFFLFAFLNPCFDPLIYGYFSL
Experimental: To the cell pellet, 10 ml of a cell homogenate buffer (10 mM NaHCO3, 5 mM EDTA, pH 7.5) was added, followed by homogenization using the Polytron homogenizer. […] This precipitate was suspended in 2 ml of an assay buffer and centrifuged at 100,000×g for 1 hour. The membrane fraction recovered as a precipitate was again suspended in 20 ml of the assay buffer, dispensed, and stored at −80° C. before use upon thawing. […] To determine maximum binding quantity, a reaction mixture of 2 μl of 60% DMSO and 10 μl of 38 nM ^125I-leuprorelin was prepared. […] Where the membrane fraction of the CHO with human GnRH receptors expressed was used, the reaction was carried out at 25° C. for 60 minutes. After each reaction, the reaction mixture was aspirated and filtered through a polyethyleneimine-treated Whatman glass filter (GF-F). After this filtration, the radioactivity of ^125I-leuprorelin remaining on the filter paper was measured with a γ-counter. The expression (TB-SB)/(TB-NSB)×100 (where SB=radioactivity with the compound added, TB=maximum bound radioactivity, NSB=nonspecifically bound radioactivity) was calculated to find the binding inhibition rate (%) of each test compound. Furthermore, the inhibition rate was determined by varying the concentration of the test substance and the 50% inhibitory concentration (IC50 value) of the compound was calculated from Hill plot.

Structure (SMILES): CONC(=O)Nc1ccc(-c2sc3c(c2CN(C)Cc2ccccc2)c(=O)n(-c2ccccc2)c(=O)n3Cc2c(F)cccc2F)cc1.Cl [Ex. Compd. No. 2, 5-(N-Benzyl-N-methylaminomethyl)-1-(2,6-difluorobenzyl)-6-[4-(3-methoxyureido)phenyl]-3-phenylthieno[2,3-d]pyrimidine-2,4(1H,3H)-dione hydrochloride]
- plasma LH concentration, percentage of the baseline LH concentration immediately before administration ([1]; 30 mg/kg oral in 0.5% methyl cellulose, by 24 hours after administration): ≤ 20%
- plasma LH concentration at 48 hours after administration ([1]; 30 mg/kg oral, 48 hours after administration): re-elevation of the plasma LH concentration was noted
- effect on blood LH concentration ([1]; administered orally, 30 mg/kg): significant depressive effect on blood LH concentration

Structure (SMILES): CONC(=O)Nc1ccc(-c2sc3c(c2CN2Cc4ccccc4C2)c(=O)n(-c2ccccc2)c(=O)n3Cc2c(F)cccc2F)cc1 [Ex. Compd. No. 4-2]
- IC50 ([2]; 125I-leuprorelin binding, calculated from Hill plot): 0.5 µM
- inhibition at 1 µM ([2]; read-out: binding inhibition rate (%) Rat (1 μM), 1 μM compound, 125I-leuprorelin, 4° C. for 90 minutes): 64%
- IC50 [3]: 0.0002 µM

Structure (SMILES): CN(Cc1ccccc1)Cc1c(-c2ccc(NC(=O)NO)cc2)sc2c1c(=O)n(-c1ccccc1)c(=O)n2Cc1c(F)cccc1F [Example 5, 5-(N-Benzyl-N-methylaminomethyl)-1-(2,6-difluorobenzyl)-6-[4-(3-hydroxyureido)phenyl]-3-phenylthieno[2,3-d]pyrimidine-2,4(1H,3H)-dione]
- melting point: 164 to 165 °C

Structure (SMILES): CN(Cc1ccccc1)Cc1c(-c2ccc(NC(=O)NCCO)cc2)sc2c1c(=O)n(-c1ccccc1)c(=O)n2Cc1c(F)cccc1F [Example 7, 5-(N-Benzyl-N-methylaminomethyl)-1-(2,6-difluorobenzyl)-6-[4-[3-(2-hydroxyethyl)ureido]phenyl]-3-phenylthieno[2,3-d]pyrimidine-2,4(1H,3H)-dione]
- melting point: 220 to 222 °C
